Data: US20050245399A1, “Pyrazole derivatives as herbicidal compositions containing them” (ISHIHARA SANGYO KAISHA, LTD., priority 2004, published 2005)

Columns and labels:
Assay type in all cases: in vivo
[1] = tested on: green foxtail (Setaria viridis L.): SETVI; assay: Test Example 1 pre-emergence herbicidal activity, SETVI; details: visually observed 20th to 23rd day after application
Method in brief: (§1)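 Seeds go into pots of upland field soil; one day on, the diluted formulation (500 L/ha water) is sprayed pre-emergence. Effects are scored visually 20 to 23 days post-application as 0–100% growth control.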

[2] = tested on: crabgrass (Digitaria sanguinalis L.): DIGSA; assay: Test Example 1 pre-emergence herbicidal activity, DIGSA; details: visually observed 20th to 23rd day after application
Method in brief: as §1

[3] = tested on: barnyardgrass (Echinochiloa oryzicola: ECHOR); assay: Test Example 3 water application herbicidal activity (paddy), ECHOR; details: 63 g a.i./ha, water application under submerged condition at 0.5 leaf stage, visually observed 14th day after application; 0 = untreated control, 100 = complete kill
Method in brief: (§2)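 Compound, as diluted wettable powder or emulsifiable concentrate, was pipetted into flood water at a set active-ingredient dose. Weeds were treated at 0.5-leaf stage after sowing or tuber planting; 2-leaf rice 4 days post-transplant. Control scored visually, 0 untreated to 100 complete kill, weeds day 14, rice day 21.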

[4] = tested on: japanese bulrush (Scirpus juncoides: SCPJO); assay: Test Example 3 water application herbicidal activity (paddy), SCPJO; details: 63 g a.i./ha, water application under submerged condition at 0.5 leaf stage, visually observed 14th day after application; 0 = untreated control, 100 = complete kill
Method in brief: as §2

[5] = tested on: redroot pigweed (Amaranthus retroflexus L.): AMARE; assay: Test Example 1 pre-emergence herbicidal activity, AMARE; details: visually observed 20th to 23rd day after application
Method in brief: as §1

[6] = tested on: crabgrass (Digitaria sanguinalis L.), DIGSA; assay: Test Example 2 post-emergence (foliage treatment) herbicidal activity, DIGSA; details: 63 g a.i./ha
Method in brief: (§3)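 Sow in upland soil; grow to leaf stage (barnyardgrass 1.1-2.1, crabgrass 1.0-2.0, pigweed 0.1-1.5, rice 1.0-2); spray foliage at a fixed active ingredient rate in 500 L/ha water with 0.1% (v/v) spreader; rate growth control visually at 20-23 days on a 0-100% scale.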

[7] = tested on: rice (Oryza sativa L.): ORYSA; assay: Test Example 1 pre-emergence herbicidal activity, ORYSA; details: visually observed 20th to 23rd day after application
Method in brief: as §1

[8] = tested on: japanese ribbon wapato (Sagittaria pygmaea: SA GPY); assay: Test Example 3 water application herbicidal activity (paddy), SAGPY; details: 63 g a.i./ha, water application under submerged condition, tubers planted, visually observed 14th day after application; 0 = untreated control, 100 = complete kill
Method in brief: as §2

[9] = tested on: barnyardgrass (Echinochloa crus-galli L.), ECHCG; assay: Test Example 2 post-emergence (foliage treatment) herbicidal activity, ECHCG; details: 63 g a.i./ha
Method in brief: as §3

[10] = tested on: redroot pigweed (Amaranthus retroflexus L.), AMARE; assay: Test Example 2 post-emergence (foliage treatment) herbicidal activity, AMARE; details: 63 g a.i./ha
Method in brief: as §3

[11] = tested on: barnyardgrass (Echinochloa crus-galli L.): ECHCG; assay: Test Example 1 pre-emergence herbicidal activity, ECHCG; details: visually observed 20th to 23rd day after application
Method in brief: as §1

[12] = tested on: wheat (Triticum aestivum L.): TRZAX; assay: Test Example 1 pre-emergence herbicidal activity, TRZAX; details: visually observed 20th to 23rd day after application
Method in brief: as §1

[13] = tested on: velvetleaf (Abutilon theophrasti), ABUTH; assay: Test Example 2 post-emergence (foliage treatment) herbicidal activity, ABUTH; details: 63 g a.i./ha
Method in brief: (§4)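 Each species was evaluated for growth suppression by eye, 0% matching untreated and 100% meaning death, some 20 to 23 days after a single post-emergence foliar treatment applied in 500 L/ha of water carrying 0.1% (v/v) agricultural spreader.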

[14] = tested on: rice (Oryza sativa L.), ORYSA; assay: Test Example 2 post-emergence (foliage treatment) herbicidal activity, ORYSA; details: 63 g a.i./ha
Method in brief: as §3

[15] = tested on: wheat (Triticum aestivum L.), TRZAX; assay: Test Example 2 post-emergence (foliage treatment) herbicidal activity, TRZAX; details: 63 g a.i./ha
Method in brief: as §4

[16] = tested on: rice (Oryza sativa L.: ORYSA); assay: Test Example 3 water application herbicidal activity (paddy), transplanted rice ORYSA; details: 63 g a.i./ha, water application 4th day after transplantation of 2 leaf stage rice, visually observed 21st day after application; 0 = untreated control, 100 = complete kill
Method in brief: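 Rice at 2-leaf stage is transplanted into flooded puddled soil and treated by water application 4 days later, at a predetermined active-ingredient dose. Crop injury is rated visually as growth control (0–100%) 21 days after treatment.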

[17] = tested on: corn (Zea mays L.): ZEAMX; assay: Test Example 1 pre-emergence herbicidal activity, ZEAMX; details: visually observed 20th to 23rd day after application
Method in brief: as §1

[18] = tested on: green foxtail (Setaria viridis L.), SETVI; assay: Test Example 2 post-emergence (foliage treatment) herbicidal activity, SETVI; details: 63 g a.i./ha
Method in brief: as §4

[19] = tested on: soybean (Glycine max Merr.), GLXMA; assay: Test Example 2 post-emergence (foliage treatment) herbicidal activity, GLXMA; details: 63 g a.i./ha
Method in brief: as §4

[20] = tested on: corn (Zea mays L.), ZEAMX; assay: Test Example 2 post-emergence (foliage treatment) herbicidal activity, ZEAMX; details: 63 g a.i./ha
Method in brief: as §4

[21] = tested on: prickly sida (Sida spinosa L.), SIDSP; assay: Test Example 2 post-emergence (foliage treatment) herbicidal activity, SIDSP; details: 63 g a.i./ha
Method in brief: as §4

[22] = tested on: prickly sida (Sida spinosa L.): SEDSP; assay: Test Example 1 pre-emergence herbicidal activity, SIDSP; details: visually observed 20th to 23rd day after application
Method in brief: as §1

[23] = tested on: velvetleaf (Abutilon theophrasti): ABUTH; assay: Test Example 1 pre-emergence herbicidal activity, ABUTH; details: visually observed 20th to 23rd day after application
Method in brief: as §1

[24] = tested on: soybean (Glycine max Merr.): GLXMA; assay: Test Example 1 pre-emergence herbicidal activity, GLXMA; details: visually observed 20th to 23rd day after application
Method in brief: as §1

| SMILES | growth controlling degrees (%) ECHOR [3] [%] | growth controlling degrees (%) SCPJO [4] [%] | growth controlling degree, DIGSP [6] [%] | growth controlling degrees (%) SAGPY [8] [%] | growth controlling degree, ECHCO [9] [%] | growth controlling degree, AMARE [10] [%] | growth controlling degree, ABUTH [13] [%] | growth controlling degree, ORYSA [14] [%] | growth controlling degree, TRZAX [15] [%] | growth controlling degrees (%) ORYSA [16] [%] | growth controlling degree, SETVI [18] [%] | growth controlling degree, GLXMA [19] [%] | growth controlling degree, ZEAMX [20] [%] | growth controlling degree, SIDSP [21] [%] | also measured |
| --- | --- | --- | --- | --- | --- | --- | --- | --- | --- | --- | --- | --- | --- | --- | --- |
| C#CCNc1c(OC(F)F)c(Cl)cc(F)c1-c1nn(C)c(OC(F)F)c1Cl [Compound 1-87] | 100 | 100 | 100 | 100 | 100 | 100 | 100 | 70 | 50 | 70 | 100 | 95 | 100 | 100 | Pre-emergence Herbicidal Activity SETVI (growth controlling degree) ([1]; Rate 63 g a.i./ha): 100%; Pre-emergence Herbicidal Activity DIGSP (growth controlling degree) ([2]; Rate 63 g a.i./ha): 100%; Pre-emergence Herbicidal Activity AMARE (growth controlling degree) ([5]; Rate 63 g a.i./ha): 100%; Pre-emergence Herbicidal Activity ORYSA (growth controlling degree) ([7]; Rate 63 g a.i./ha): 60%; Pre-emergence Herbicidal Activity ECHCG (growth controlling degree) ([11]; Rate 63 g a.i./ha): 100%; Pre-emergence Herbicidal Activity TRZAX (growth controlling degree) ([12]; Rate 63 g a.i./ha): 10%; Pre-emergence Herbicidal Activity ZEAMX (growth controlling degree) ([17]; Rate 63 g a.i./ha): 0%; Pre-emergence Herbicidal Activity SIDSP (growth controlling degree) ([22]; Rate 63 g a.i./ha): 98%; Pre-emergence Herbicidal Activity ABUTH (growth controlling degree) ([23]; Rate 63 g a.i./ha): 80%; Pre-emergence Herbicidal Activity GLXMA (growth controlling degree) ([24]; Rate 63 g a.i./ha): 40% |
| COc1c(Cl)cc(F)c(-c2nn(C)c(OC(F)F)c2Cl)c1N(C(=O)CCc1ccccc1)C(=O)CCc1ccccc1 [Compound 1-18] | 100 | 40 | 70 | 50 | 70 | 100 | 100 | 60 | 10 | 30 | 80 | 60 | 60 | 100 | Pre-emergence Herbicidal Activity SETVI (growth controlling degree) ([1]; Rate 125 g a.i./ha): 50%; Pre-emergence Herbicidal Activity DIGSP (growth controlling degree) ([2]; Rate 125 g a.i./ha): 98%; Pre-emergence Herbicidal Activity AMARE (growth controlling degree) ([5]; Rate 125 g a.i./ha): 100%; Pre-emergence Herbicidal Activity ORYSA (growth controlling degree) ([7]; Rate 125 g a.i./ha): 50%; Pre-emergence Herbicidal Activity ECHCG (growth controlling degree) ([11]; Rate 125 g a.i./ha): 70%; Pre-emergence Herbicidal Activity TRZAX (growth controlling degree) ([12]; Rate 125 g a.i./ha): 30%; Pre-emergence Herbicidal Activity ZEAMX (growth controlling degree) ([17]; Rate 125 g a.i./ha): 0%; Pre-emergence Herbicidal Activity SIDSP (growth controlling degree) ([22]; Rate 125 g a.i./ha): 60%; Pre-emergence Herbicidal Activity ABUTH (growth controlling degree) ([23]; Rate 125 g a.i./ha): 40%; Pre-emergence Herbicidal Activity GLXMA (growth controlling degree) ([24]; Rate 125 g a.i./ha): 20% |
